In PubChem BioAssay AID1259407 (Chemical Carcinogenesis Research Information System (CCRIS), 2018):
The source made the active and inactive calls. The rule behind the calls is not given here.

System: CCRIS mutagenicity, Ames/micronucleus/aberration tests
Experiment: CCRIS mutagenicity studies
[1] = Test System: AMES SALMONELLA TYPHIMURIUM, Strain/Indicator: TA100, Metabolic Activation: NONE, Method: STANDARD PLATE
[2] = Test System: AMES SALMONELLA TYPHIMURIUM, Strain/Indicator: TA1537, Metabolic Activation: NONE, Method: STANDARD PLATE
[3] = Test System: AMES SALMONELLA TYPHIMURIUM, Strain/Indicator: TA100, Metabolic Activation: NONE, Method: PREINCUBATION
[4] = Test System: AMES SALMONELLA TYPHIMURIUM, Strain/Indicator: TA1537, Metabolic Activation: NONE, Method: PREINCUBATION
[5] = Test System: AMES SALMONELLA TYPHIMURIUM, Strain/Indicator: TA98, Metabolic Activation: NONE, Method: STANDARD PLATE
[6] = Test System: AMES SALMONELLA TYPHIMURIUM, Strain/Indicator: TA98, Metabolic Activation: RAT, LIVER, S-9, AROCLOR 1254, Method: STANDARD PLATE
[7] = Test System: AMES SALMONELLA TYPHIMURIUM, Strain/Indicator: TA1535, Metabolic Activation: NONE, Method: STANDARD PLATE
[8] = Test System: AMES SALMONELLA TYPHIMURIUM, Strain/Indicator: TA1535, Metabolic Activation: RAT, LIVER, S-9, AROCLOR 1254, Method: STANDARD PLATE
[9] = Test System: AMES SALMONELLA TYPHIMURIUM, Strain/Indicator: TA1537, Metabolic Activation: RAT, LIVER, S-9, AROCLOR 1254, Method: STANDARD PLATE
[10] = Test System: AMES SALMONELLA TYPHIMURIUM, Strain/Indicator: TA1538, Metabolic Activation: NONE, Method: STANDARD PLATE
[11] = Test System: AMES SALMONELLA TYPHIMURIUM, Strain/Indicator: TA1538, Metabolic Activation: RAT, LIVER, S-9, AROCLOR 1254, Method: STANDARD PLATE

CCC(=O)Nc1snc2ccccc12 was tested, and the mutagenic call [1] was “inactive; negative”, the mutagenic call (Test System: AMES SALMONELLA TYPHIMURIUM, Strain/Indicator: TA100, Metabolic Activation: S-9, Method: STANDARD PLATE) was “inactive; negative” and the mutagenic call [2] was “inactive; negative”. For the same compound, the mutagenic call (Test System: AMES SALMONELLA TYPHIMURIUM, Strain/Indicator: TA1537, Metabolic Activation: S-9, Method: STANDARD PLATE) was “inactive; negative”.

For O=C1C=CC(=O)c2c(O)ccc(O)c21, the mutagenic call (Test System: AMES SALMONELLA TYPHIMURIUM, Strain/Indicator: TA97, Metabolic Activation: NONE, Method: PREINCUBATION) was “active; positive”, the mutagenic call (Test System: AMES SALMONELLA TYPHIMURIUM, Strain/Indicator: TA97, Metabolic Activation: RAT, LIVER, S-9, PHENOBARBITAL AND 5,6-BENZOFLAVONE, Method: PREINCUBATION) was “active; positive” and the mutagenic call (Test System: AMES SALMONELLA TYPHIMURIUM, Strain/Indicator: TA98, Metabolic Activation: NONE, Method: PREINCUBATION) was “inactive; negative”. The mutagenic call (Test System: AMES SALMONELLA TYPHIMURIUM, Strain/Indicator: TA98, Metabolic Activation: RAT, LIVER, S-9, PHENOBARBITAL AND 5,6-BENZOFLAVONE, Method: PREINCUBATION) was “inactive; negative”, the mutagenic call [3] was “active; positive” and the mutagenic call (Test System: AMES SALMONELLA TYPHIMURIUM, Strain/Indicator: TA100, Metabolic Activation: RAT, LIVER, S-9, PHENOBARBITAL AND 5,6-BENZOFLAVONE, Method: PREINCUBATION) was “active; positive”. For the same compound, the mutagenic call (Test System: AMES SALMONELLA TYPHIMURIUM, Strain/Indicator: TA102, Metabolic Activation: NONE, Method: PREINCUBATION) was “active; positive”, the mutagenic call (Test System: AMES SALMONELLA TYPHIMURIUM, Strain/Indicator: TA102, Metabolic Activation: RAT, LIVER, S-9, PHENOBARBITAL AND 5,6-BENZOFLAVONE, Method: PREINCUBATION) was “active; positive” and the mutagenic call (Test System: AMES SALMONELLA TYPHIMURIUM, Strain/Indicator: TA104, Metabolic Activation: NONE, Method: PREINCUBATION) was “active; positive”. The mutagenic call (Test System: AMES SALMONELLA TYPHIMURIUM, Strain/Indicator: TA104, Metabolic Activation: RAT, LIVER, S-9, PHENOBARBITAL AND 5,6-BENZOFLAVONE, Method: PREINCUBATION) was “active; positive”, the mutagenic call (Test System: AMES SALMONELLA TYPHIMURIUM, Strain/Indicator: TA1535, Metabolic Activation: NONE, Method: PREINCUBATION) was “inactive; negative” and the mutagenic call (Test System: AMES SALMONELLA TYPHIMURIUM, Strain/Indicator: TA1535, Metabolic Activation: RAT, LIVER, S-9, PHENOBARBITAL AND 5,6-BENZOFLAVONE, Method: PREINCUBATION) was “inactive; negative”. The mutagenic call [4] was “inactive; negative”, the mutagenic call (Test System: AMES SALMONELLA TYPHIMURIUM, Strain/Indicator: TA1537, Metabolic Activation: RAT, LIVER, S-9, PHENOBARBITAL AND 5,6-BENZOFLAVONE, Method: PREINCUBATION) was “active; positive” and the mutagenic call (Test System: AMES SALMONELLA TYPHIMURIUM, Strain/Indicator: TA1538, Metabolic Activation: NONE, Method: PREINCUBATION) was “inactive; negative”. For the same compound, the mutagenic call (Test System: AMES SALMONELLA TYPHIMURIUM, Strain/Indicator: TA1538, Metabolic Activation: RAT, LIVER, S-9, PHENOBARBITAL AND 5,6-BENZOFLAVONE, Method: PREINCUBATION) was “inactive; negative”, the mutagenic call (Test System: AMES SALMONELLA TYPHIMURIUM, Strain/Indicator: TA2637, Metabolic Activation: NONE, Method: PREINCUBATION) was “active; positive” and the mutagenic call (Test System: AMES SALMONELLA TYPHIMURIUM, Strain/Indicator: TA2637, Metabolic Activation: RAT, LIVER, S-9, PHENOBARBITAL AND 5,6-BENZOFLAVONE, Method: PREINCUBATION) was “active; positive”.

O=C1C=C2C(=CCOC2O)O1 (stereo unspecified) was tested, and the mutagenic call (End Point: In vitro micronucleus, Test System: Human hepatoma HepG2 cells, Metabolic Activation: None) was “active; positive. depletion of glutathione increased patulin-induced micronuclei frequen”, the mutagenic call (Test System: AMES SALMONELLA TYPHIMURIUM, Strain/Indicator: TA98, Metabolic Activation: RAT, LIVER, MICROSOMES, PHENOBARBITAL, Method: STANDARD PLATE) was “inactive; negative” and the mutagenic call [3] was “inactive; negative”. For the same compound, the mutagenic call (Test System: AMES SALMONELLA TYPHIMURIUM, Strain/Indicator: TA100, Metabolic Activation: RAT, LIVER, MICROSOMES, PHENOBARBITAL, Method: STANDARD PLATE) was “inactive; negative”, the mutagenic call (Test System: AMES SALMONELLA TYPHIMURIUM, Strain/Indicator: TA100, Metabolic Activation: RAT, LIVER, S-9, PHENOBARBITAL, Method: PREINCUBATION) was “inactive; negative” and the mutagenic call (Test System: AMES SALMONELLA TYPHIMURIUM, Strain/Indicator: TA102, Metabolic Activation: NONE, Method: STANDARD PLATE) was “inactive; negative”. For the same compound, the mutagenic call (Test System: AMES SALMONELLA TYPHIMURIUM, Strain/Indicator: TA102, Metabolic Activation: RAT, LIVER, S-9, AROCLOR 1254, Method: STANDARD PLATE) was “inactive; negative”.

Nc1ccccc1C(F)(F)F was tested, and the mutagenic call [5] was “inactive; negative”, the mutagenic call [6] was “inactive; negative” and the mutagenic call [1] was “inactive; negative”. The mutagenic call (Test System: AMES SALMONELLA TYPHIMURIUM, Strain/Indicator: TA100, Metabolic Activation: RAT, LIVER, S-9, AROCLOR 1254, Method: STANDARD PLATE) was “inactive; negative”, the mutagenic call [7] was “inactive; negative” and the mutagenic call [8] was “inactive; negative”. The mutagenic call [2] was “inactive; negative”, the mutagenic call [9] was “inactive; negative” and the mutagenic call [10] was “inactive; negative”. The mutagenic call [11] was “inactive; negative”.

In the case of Nc1ccc(O)c2c1C(=O)c1c(O)ccc(N)c1C2=O, the mutagenic call [5] is reported as “active; positive”, the mutagenic call [6] is reported as “active; positive” and the mutagenic call [7] is reported as “inactive; negative”. For the same compound, the mutagenic call [8] was “inactive; negative”, the mutagenic call [2] was “active; positive” and the mutagenic call [9] was “active; positive”. For the same compound, the mutagenic call [10] was “active; positive”, the mutagenic call [11] was “active; positive” and the mutagenic call (Test System: AMES SALMONELLA TYPHIMURIUM, Strain/Indicator: TA1978, Metabolic Activation: NONE, Method: STANDARD PLATE) was “inactive; negative”. The mutagenic call (Test System: AMES SALMONELLA TYPHIMURIUM, Strain/Indicator: TA1978, Metabolic Activation: RAT, LIVER, S-9, AROCLOR 1254, Method: STANDARD PLATE) was “inactive; negative”.

Nn1c2ccccc2c2cnccc21 was tested, and the mutagenic call [4] was “active; positive” and the mutagenic call (Test System: AMES SALMONELLA TYPHIMURIUM, Strain/Indicator: TA1537, Metabolic Activation: RAT, LIVER, S-9, PHENOBARBITAL, Method: PREINCUBATION) was “inactive; negative”.
